Residues, ends and D or L forms follow the SMILES beside them. *: point of attachment. For = O=C*
What was measured:
[1] = system: adenylyl cyclase activity via β2AR in membranes; details: membranes (3); cited from earlier work
[2] = system: β2AR in membranes; details: membrane binding assays (3); cited from earlier work
[3] = molecular target: T1, β2AR-GFP with Gαsβ1γ2 on Ni beads (Homo sapiens, UniProt P07550); test: ARG assembly assay on G protein coated beads, flow cytometry; assay type: biochemical; details: for slope of GFP/bead versus β2AR-GFP concentration: dobutamine relative to salbutamol
T1 construct: expressed in transfected cells; host or cells: receptor fusion: U937 cells, solubilized membranes
T1 sequence (P62873 2-340): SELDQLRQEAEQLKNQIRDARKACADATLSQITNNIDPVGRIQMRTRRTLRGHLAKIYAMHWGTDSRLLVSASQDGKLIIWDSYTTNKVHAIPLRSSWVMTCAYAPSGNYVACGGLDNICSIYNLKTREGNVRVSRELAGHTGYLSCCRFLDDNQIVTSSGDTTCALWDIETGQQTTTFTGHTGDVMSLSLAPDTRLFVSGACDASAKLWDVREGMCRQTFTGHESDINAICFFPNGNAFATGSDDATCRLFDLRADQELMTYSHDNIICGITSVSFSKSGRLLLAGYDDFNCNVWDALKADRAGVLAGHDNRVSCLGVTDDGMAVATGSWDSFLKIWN
T1 sequence (P07550 whole entry, the tested form may be a part): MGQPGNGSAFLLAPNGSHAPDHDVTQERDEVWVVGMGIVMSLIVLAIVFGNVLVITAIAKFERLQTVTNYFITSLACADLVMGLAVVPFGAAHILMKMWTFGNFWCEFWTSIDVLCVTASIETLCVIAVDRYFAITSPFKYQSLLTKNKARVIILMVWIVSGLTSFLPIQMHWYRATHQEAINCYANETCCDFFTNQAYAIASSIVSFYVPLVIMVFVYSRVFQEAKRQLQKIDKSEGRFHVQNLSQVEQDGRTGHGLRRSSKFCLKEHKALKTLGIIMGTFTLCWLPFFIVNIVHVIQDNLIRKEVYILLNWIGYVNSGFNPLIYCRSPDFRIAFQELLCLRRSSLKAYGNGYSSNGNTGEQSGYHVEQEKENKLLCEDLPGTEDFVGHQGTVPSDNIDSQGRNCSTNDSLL
T1 sequence (P59768 2-68, further chain): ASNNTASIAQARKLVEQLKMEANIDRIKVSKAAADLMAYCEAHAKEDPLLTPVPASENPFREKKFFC
T1 sequence (P63092 other isoform, or with tags, fused parts or gaps, further chain): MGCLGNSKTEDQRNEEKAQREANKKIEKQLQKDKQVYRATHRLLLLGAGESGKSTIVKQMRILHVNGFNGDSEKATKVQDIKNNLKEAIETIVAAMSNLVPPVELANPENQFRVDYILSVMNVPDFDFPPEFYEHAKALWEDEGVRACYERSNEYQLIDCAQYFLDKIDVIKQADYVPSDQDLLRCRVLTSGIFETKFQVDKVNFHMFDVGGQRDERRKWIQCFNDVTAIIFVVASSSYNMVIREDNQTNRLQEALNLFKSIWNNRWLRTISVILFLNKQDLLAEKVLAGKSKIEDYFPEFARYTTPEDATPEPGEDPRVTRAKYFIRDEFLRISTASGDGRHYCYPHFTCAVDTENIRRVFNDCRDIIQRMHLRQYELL
Experimental: ARG Assembly Assay on G Protein Coated Beads—Coating of the Ni beads with heterotrimeric G proteins has been described before in detail (10). Briefly, 25 pmol of the desired α subunit and 25 pmol of hexahistidine-tagged β1γ2 were mixed with 2.5 μl of a 50% slurry of DCNi beads (2.5×10^5 beads/μl) and 190 μl of HPSM containing 0.1% dodecyl maltoside and 1 mM dithiothreitol, then kept in suspension by rocking at 4–7° C. for one hour. The beads were then centrifuged for 30 seconds at 1,500×gmax, the supernatant was removed, and the beads were resuspended in 50 μl of the buffer. This provided 25 aliquots of 24,000 G protein coated beads, for 25 ARG assembly assays (some beads were lost to surfaces). A ten microliter ARG assembly assay generally consisted of two microliters of solubilized receptor preparation, two microliters of desired ligand, four microliters of HPSM containing 0.1% dodecyl maltoside, and two microliters of G protein coated beads. Nonspecific fluorescence was defined in the presence of 0.1 mM GTPγS. These suspensions were mixed on an orbital mixer for 2 hours, brought to 200 μl with HPSM containing 0.1% dodecyl maltoside, transferred to a 12×75 mm tube, and immediately analyzed by flow cytometry for bead fluorescence. For kinetic data, tubes were removed from the cytometer after twenty seconds, 2 μl of 10^−2 M GTPγS was added and mixed, and the tubes were returned to the cytometer for measurement of the bead fluorescence. The cytometer data were converted to alphanumeric form and binned into one second intervals using the FACSQuery program (available free from Bruce Edwards), which provides a series of mean channel fluorescence (MCF) values in an Excel file.

[4] = molecular target: T2, FPR-GFP (R^F) with Gαi3β1H6γ2 on DCNi beads (Homo sapiens, UniProt P21462); test: Standard LRG assembly assay with FPR-GFP on G protein beads, flow cytometry; assay type: biochemical
T2 construct: host or cells: receptor fusion: transfected cells (U937 named for FPR), solubilized membranes; β1H6γ2: Sf9 insect cells
T2 sequence (P21462 whole entry, the tested form may be a part): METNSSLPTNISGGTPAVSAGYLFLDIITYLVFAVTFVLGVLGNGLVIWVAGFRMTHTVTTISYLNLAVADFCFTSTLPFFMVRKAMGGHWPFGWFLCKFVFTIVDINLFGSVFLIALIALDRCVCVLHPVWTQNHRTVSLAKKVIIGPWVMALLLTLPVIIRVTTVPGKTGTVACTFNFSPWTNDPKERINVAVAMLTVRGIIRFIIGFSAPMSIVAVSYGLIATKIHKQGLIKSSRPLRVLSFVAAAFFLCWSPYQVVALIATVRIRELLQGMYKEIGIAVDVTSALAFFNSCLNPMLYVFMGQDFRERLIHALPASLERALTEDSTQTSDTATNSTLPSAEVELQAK
T2 sequence (P08754 2-354 partner limits assumed): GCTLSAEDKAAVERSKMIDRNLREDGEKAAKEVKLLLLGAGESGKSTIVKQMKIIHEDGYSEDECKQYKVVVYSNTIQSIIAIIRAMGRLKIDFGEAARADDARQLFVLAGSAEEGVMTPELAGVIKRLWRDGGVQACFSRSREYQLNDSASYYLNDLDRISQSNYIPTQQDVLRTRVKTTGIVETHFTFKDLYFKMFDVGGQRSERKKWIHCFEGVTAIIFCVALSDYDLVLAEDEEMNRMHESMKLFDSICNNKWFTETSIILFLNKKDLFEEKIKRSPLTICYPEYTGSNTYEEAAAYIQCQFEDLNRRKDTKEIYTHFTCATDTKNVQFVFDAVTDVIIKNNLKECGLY
T2 sequence (P62873 2-340 partner limits assumed): as the sequence (P62873 2-340) above
T2 sequence (P59768 2-68 partner limits assumed): as the sequence (P59768 2-68, further chain) above
Experimental: Standard LRG Assembly Assay. […] Each mixture was mixed by pipetting to ensure a uniform starting suspension of the beads in 96 V-well plates (Costar), and then mixed at low speed on a vortex mixer at 7° for two hours. The 10 μl assays were individually brought to 200 μl with 0.1% dodecyl maltoside in buffer A in 12×75 mm tubes for flow cytometric measurement of fluorescence of the beads. LRG assembly was defined as the difference between fluorescence without GTPγS and that with GTPγS. All determinations were done in duplicate.

SMILES	efficacy (adenylyl cyclase activity compared to isoproterenol) [1] [%]	percent ARG form [2] [%]	slope of GFP/bead versus β2AR-GFP concentration ([3]; saturating agonist)	other results
CC(C)(C)NCC(O)c1ccc(O)c(CO)c1 (stereo not shown) [salbutamol]	20			
CC(C)NCC(O)c1ccc(O)c(O)c1 (stereo not shown) [isoproterenol]	100	80		
CC(CCc1ccc(O)cc1)NCCc1ccc(O)c(O)c1 (stereo not shown) [dobutamine]			⅔	rate of ternary complex disassembly after GTPγS ([3]; 0.1 mM GTPγS): 0.09 s⁻¹; maximal ARG/bead level relative to the full agonist isoproterenol ([3]; dose-response, 20 nM β2AR-GFP): ten; time course of ARG assembly ([3]; saturating agonist, 40 nM β2AR-GFP): ≤ 1 h
CC(C)NCC(O)c1ccc(O)c(NS(C)(=O)=O)c1 (stereo not shown) [soterenol]	8	58		
Nc1nc2c(ncn2[C@@H]2O[C@H](COP(=O)(O)OP(=O)(O)OP(O)(O)=S)[C@@H](O)[C@H]2O)c(=O)[nH]1 [GTPγS, guanosine 5′-3-O-(thio)triphosphate]				fluorescence on G protein beads with GTPγS added ([3]; 40 nM β2AR-GFP, 1 mM isoproterenol, 0.1 mM GTPγS): about 10,000 β2AR-GFP/bead
NC[C@H](O)c1ccc(O)c(O)c1 [norepinephrine]			indistinguishable from isoproterenol	
CSCC[C@H](NC=O)C(=O)N[C@@H](CC(C)C)C(=O)N[C@@H](Cc1ccccc1)C(=O)N[C@@H](Cc1ccccc1)C(=O)O [fMLFF] (For-MLFF-OH)				EC50 [4]: 27 nM; ratio of Kd (for LR) to EC50 (for LRG formation) [4]: 2.8
CNC[C@H](O)c1ccc(O)c(O)c1 [epinephrine]			indistinguishable from isoproterenol	
CC(Cc1ccc(O)cc1)NCC(O)c1ccc(O)c(O)c1 (stereo not shown) [hydroxybenzylisoproterenol]	110	93		
